Measurements from patent US9708308B2, “Factor IXa inhibitors” (Merck Sharp & Dohme Corp., priority 2012, dated 2017).

What follows are molecules tested against Factor IXa (Homo sapiens, UniProt P00740) (assay: Determination of inhibitory activity against Factor IXa (cleavage of fluorescent peptide substrate)). Conditions: cleavage of fluorescent peptide CH3SO2-D-CHG-Gly-Arg-AFC, release of AFC; read-out: FIXa IC50.
Assay type: biochemical
How it was run: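 Factor IXa activity followed via cleavage of CH3SO2-D-CHG-Gly-Arg-AFC, releasing AFC. Fluorescence read at excitation 405 nm, emission 510 nm.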

Chain of Factor IXa (P00740 227-461 limits assumed): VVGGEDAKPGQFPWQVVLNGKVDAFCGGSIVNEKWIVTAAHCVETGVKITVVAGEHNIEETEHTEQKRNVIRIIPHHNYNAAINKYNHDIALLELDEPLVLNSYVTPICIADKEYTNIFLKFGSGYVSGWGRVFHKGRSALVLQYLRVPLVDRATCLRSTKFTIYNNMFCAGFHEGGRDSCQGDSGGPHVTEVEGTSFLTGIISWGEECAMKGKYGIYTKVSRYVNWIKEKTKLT
Chain of Factor IXa (P00740 47-191 partner limits assumed): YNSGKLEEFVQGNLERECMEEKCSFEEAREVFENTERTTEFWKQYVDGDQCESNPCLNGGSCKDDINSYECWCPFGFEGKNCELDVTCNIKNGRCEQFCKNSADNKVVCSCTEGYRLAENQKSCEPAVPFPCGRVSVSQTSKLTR

IC50 [µM]	SMILES
0.0256	C[C@]1([C@@H](O)C(=O)Nc2ccc3c(N)noc3c2)OCCN(c2nn(-c3ccc(=O)n(C(F)F)c3)cc2F)C1=O [Example 78, (R)—N-(3-Aminobenzo[d]isoxazol-6-yl)-2-((R)-4-(1-(1-(difluoromethyl)-6-oxo-1,6-dihydropyridin-3-yl)-4-fluoro-1H-pyrazol-3-yl)-2-methyl-3-oxomorpholin-2-yl)-2-hydroxyacetamide]
0.17	C[C@]1([C@@H](O)C(=O)Nc2ccc3c(N)noc3c2)OCCN(c2ccn(-c3ccc(F)cc3)n2)C1=O [Example 79, (R)—N-(3-aminobenzo[d]isoxazol-6-yl)-2-((R)-4-(1-(4-fluorophenyl)-1H-pyrazol-3-yl)-2-methyl-3-oxomorpholin-2-yl)-2-hydroxyacetamide]
0.0253	C[C@]1([C@@H](O)C(=O)Nc2ccc3c(N)noc3c2)OCCN(c2ccn(-c3ccc(C#N)cc3)n2)C1=O [Example 80, (R)—N-(3-aminobenzo[d]isoxazol-6-yl)-2-((R)-4-(1-(4-cyanophenyl)-1H-pyrazol-3-yl)-2-methyl-3-oxomorpholin-2-yl)-2-hydroxyacetamide]
0.418	COC(=O)c1ccc(-n2ccc(N3CCO[C@](C)([C@@H](O)C(=O)Nc4ccc5c(N)noc5c4)C3=O)n2)cc1 [Example 81, methyl 4-(3-((R)-2-((R)-2-((3-aminobenzo[d]isoxazol-6-yl)amino)-1-hydroxy-2-oxoethyl)-2-methyl-3-oxomorpholino)-1H-pyrazol-1-yl)benzoate]
0.0328	C[C@]1([C@@H](O)C(=O)Nc2ccc3c(N)noc3c2)OCCN(c2ccn(-c3ccc(C(=O)O)cc3)n2)C1=O [Example 82, 4-(3-((R)-2-((R)-2-((3-aminobenzo[d]isoxazol-6-yl)amino)-1-hydroxy-2-oxoethyl)-2-methyl-3-oxomorpholino)-1H-pyrazol-1-yl)benzoic acid]
0.352	C[C@]1([C@@H](O)C(=O)Nc2ccc3c(N)noc3c2)OCCN(c2ccn(-c3ccc(Cl)cc3)n2)C1=O [Example 83, (R)—N-(3-aminobenzo[d]isoxazol-6-yl)-2-((R)-4-(1-(4-chlorophenyl)-1H-pyrazol-3-yl)-2-methyl-3-oxomorpholin-2-yl)-2-hydroxyacetamide]
0.0132	C[C@]1([C@@H](O)C(=O)Nc2ccc3c(N)noc3c2)OCCN(c2ccn(-c3ccc(S(C)(=O)=O)cc3)n2)C1=O [Example 84, (R)—N-(3-aminobenzo[d]isoxazol-6-yl)-2-hydroxy-2-((R)-2-methyl-4-(1-(4-(methylsulfonyl)phenyl)-1H-pyrazol-3-yl)-3-oxomorpholin-2-yl)acetamide]
0.279	C[C@]1([C@@H](O)C(=O)Nc2ccc3c(N)noc3c2)OCCN(c2ccn(-c3cccnc3)n2)C1=O [Example 85, (R)—N-(3-aminobenzo[d]isoxazol-6-yl)-2-hydroxy-2-((R)-2-methyl-3-oxo-4-(1-(pyridin-3-yl)-1H-pyrazol-3-yl)morpholin-2-yl)acetamide]
0.414	C[C@]1([C@@H](O)C(=O)Nc2ccc3c(N)noc3c2)OCCN(c2ccn(-c3ccc(C(F)(F)F)nc3)n2)C1=O [Example 86, (R)—N-(3-aminobenzo[d]isoxazol-6-yl)-2-hydroxy-2-((R)-2-methyl-3-oxo-4-(1-(6-(trifluoromethyl)pyridin-3-yl)-1H-pyrazol-3-yl)morpholin-2-yl)acetamide]
0.228	C[C@]1([C@@H](O)C(=O)Nc2ccc3c(N)noc3c2)OCCN(c2ccn(-c3cncc(C(F)(F)F)c3)n2)C1=O [Example 87, (R)—N-(3-aminobenzo[d]isoxazol-6-yl)-2-hydroxy-2-((R)-2-methyl-3-oxo-4-(1-(5-(trifluoromethyl)pyridin-3-yl)-1H-pyrazol-3-yl)morpholin-2-yl)acetamide]
0.95	C[C@]1([C@@H](O)C(=O)Nc2ccc3c(N)noc3c2)OCCN(c2ccn(-c3cncc(C#N)c3)n2)C1=O [Example 88, (R)—N-(3-aminobenzo[d]isoxazol-6-yl)-2-((R)-4-(1-(5-cyanopyridin-3-yl)-1H-pyrazol-3-yl)-2-methyl-3-oxomorpholin-2-yl)-2-hydroxyacetamide]
1.06	C[C@]1([C@@H](O)C(=O)Nc2ccc3c(N)noc3c2)OCCN(c2ccn(-c3ccncc3)n2)C1=O [Example 89, (R)—N-(3-aminobenzo[d]isoxazol-6-yl)-2-hydroxy-2-((R)-2-methyl-3-oxo-4-(1-(pyridin-4-yl)-1H-pyrazol-3-yl)morpholin-2-yl)acetamide]
0.0235	C[C@]1([C@@H](O)C(=O)Nc2ccc3c(N)noc3c2)OCCN(c2ccn(-c3ccncc3F)n2)C1=O [Example 90, (R)—N-(3-aminobenzo[d]isoxazol-6-yl)-2-((R)-4-(1-(3-fluoropyridin-4-yl)-1H-pyrazol-3-yl)-2-methyl-3-oxomorpholin-2-yl)-2-hydroxyacetamide]
0.69	COC(=O)c1cc(-n2ccc(N3CCO[C@](C)([C@@H](O)C(=O)Nc4ccc5c(N)noc5c4)C3=O)n2)ccn1 [Example 91, methyl 4-(3-((R)-2-((R)-2-((3-aminobenzo[d]isoxazol-6-yl)amino)-1-hydroxy-2-oxoethyl)-2-methyl-3-oxomorpholino)-1H-pyrazol-1-yl)picolinate]
0.106	COc1cc(-n2ccc(N3CCO[C@](C)([C@@H](O)C(=O)Nc4ccc5c(N)noc5c4)C3=O)n2)ccn1 [Example 92, (R)—N-(3-aminobenzo[d]isoxazol-6-yl)-2-hydroxy-2-((R)-4-(1-(2-methoxypyridin-4-yl)-1H-pyrazol-3-yl)-2-methyl-3-oxomorpholin-2-yl)acetamide]
0.0129	C[C@]1([C@@H](O)C(=O)Nc2ccc3c(N)noc3c2)OCCN(c2ccn(-c3ccnc(C(F)(F)F)c3)n2)C1=O [Example 94, (R)—N-(3-aminobenzo[d]isoxazol-6-yl)-2-hydroxy-2-((R)-2-methyl-3-oxo-4-(1-(2-(trifluoromethyl)pyridin-4-yl)-1H-pyrazol-3-yl)morpholin-2-yl)acetamide]
0.251	C[C@]1([C@@H](O)C(=O)Nc2ccc3c(N)noc3c2)OCCN(c2ccn(-c3c(F)cncc3F)n2)C1=O [Example 95, (R)—N-(3-aminobenzo[d]isoxazol-6-yl)-2-((R)-4-(1-(3,5-difluoropyridin-4-yl)-1H-pyrazol-3-yl)-2-methyl-3-oxomorpholin-2-yl)-2-hydroxyacetamide]
0.0491	Cc1cc(N2CCO[C@](C)([C@@H](O)C(=O)Nc3ccc4c(N)noc4c3)C2=O)nn1-c1ccnc(C(F)(F)F)c1 [Example 96, (R)—N-(3-aminobenzo[d]isoxazol-6-yl)-2-hydroxy-2-((R)-2-methyl-4-(5-methyl-1-(2-(trifluoromethyl)pyridin-4-yl)-1H-pyrazol-3-yl)-3-oxomorpholin-2-yl)acetamide]
0.00368	C[C@]1([C@@H](O)C(=O)Nc2ccc3c(N)noc3c2)OCCN(c2ccn(-c3ccnnc3)n2)C1=O [Example 97, (R)—N-(3-aminobenzo[d]isoxazol-6-yl)-2-hydroxy-2-((R)-2-methyl-3-oxo-4-(1-(pyridazin-4-yl)-1H-pyrazol-3-yl)morpholin-2-yl)acetamide]
0.00371	COc1cc(-n2ccc(N3CCO[C@](C)([C@@H](O)C(=O)Nc4ccc5c(N)noc5c4)C3=O)n2)cnn1 [Example 98, (R)—N-(3-aminobenzo[d]isoxazol-6-yl)-2-hydroxy-2-((R)-4-(1-(6-methoxypyridazin-4-yl)-1H-pyrazol-3-yl)-2-methyl-3-oxomorpholin-2-yl)acetamide]
0.0037	[2H]C([2H])([2H])Oc1cc(-n2ccc(N3CCO[C@](C)([C@@H](O)C(=O)Nc4ccc5c(N)noc5c4)C3=O)n2)cnn1 [Example 99, (2R)—N-(3-amino-1,2-benzoxazol-6-yl)-2-hydroxy-2-[(2R)-2-methyl-3-oxo-4-[1-[6-(trideuteriomethoxy)pyridazin-4-yl]pyrazol-3-yl]morpholin-2-yl]acetamide]
0.00217	C[C@]1([C@@H](O)C(=O)Nc2ccc3c(N)noc3c2)OCCN(c2ccn(-c3cnnc(C#N)c3)n2)C1=O [Example 100, (R)—N-(3-aminobenzo[d]isoxazol-6-yl)-2-((R)-4-(1-(6-cyanopyridazin-4-yl)-1H-pyrazol-3-yl)-2-methyl-3-oxomorpholin-2-yl)-2-hydroxyacetamide]
0.635	COc1ncc(-n2ccc(N3CCO[C@](C)([C@@H](O)C(=O)Nc4ccc5c(N)noc5c4)C3=O)n2)cn1 [Example 101, (R)—N-(3-aminobenzo[d]isoxazol-6-yl)-2-hydroxy-2-((R)-4-(1-(2-methoxypyrimidin-5-yl)-1H-pyrazol-3-yl)-2-methyl-3-oxomorpholin-2-yl)acetamide]
0.124	C[C@]1([C@@H](O)C(=O)Nc2ccc3c(N)noc3c2)OCCN(c2ccn(-c3cnc(C(F)(F)F)nc3)n2)C1=O [Example 102, (R)—N-(3-aminobenzo[d]isoxazol-6-yl)-2-hydroxy-2-((R)-2-methyl-3-oxo-4-(1-(2-(trifluoromethyl)pyrimidin-5-yl)-1H-pyrazol-3-yl)morpholin-2-yl)acetamide]
0.0108	COc1nccc(-n2ccc(N3CCO[C@](C)([C@@H](O)C(=O)Nc4ccc5c(N)noc5c4)C3=O)n2)n1 [Example 103, (R)—N-(3-aminobenzo[d]isoxazol-6-yl)-2-hydroxy-2-((R)-4-(1-(2-methoxypyrimidin-4-yl)-1H-pyrazol-3-yl)-2-methyl-3-oxomorpholin-2-yl)acetamide]
0.401	Cc1cc(N2CCO[C@](C)([C@@H](O)C(=O)Nc3ccc4c(N)noc4c3)C2=O)nn1C1CC1 [Example 104, (R)—N-(3-aminobenzo[d]isoxazol-6-yl)-2-((R)-4-(1-cyclopropyl-5-methyl-1H-pyrazol-3-yl)-2-methyl-3-oxomorpholin-2-yl)-2-hydroxyacetamide]
0.0979	C[C@]1([C@@H](O)C(=O)Nc2ccc3c(N)noc3c2)OCCN(c2nc(-c3ccncc3)co2)C1=O [Example 105, (R)—N-(3-aminobenzo[d]isoxazol-6-yl)-2-hydroxy-2-((R)-2-methyl-3-oxo-4-(4-(pyridin-4-yl)oxazol-2-yl)morpholin-2-yl)acetamide]
